PubChem BioAssay AID588784 (Southern Research Specialized Biocontainment Screening …, 2011)
Several values for one entry are separate records, joined by “and”; a condition that tells them apart may be missing. Identical values can stand only once. Activity calls are given as the source filed them. No rule for the calls is given here.

Test system: HSV-infected cells, viral DNA qPCR Ct reduction
Experiment: enhancers of HSV replication by viral DNA qPCR, confirmation, HSV replication enhancer project, cell-based (AID 588784)
Settings: at 10 µM; hits give high values

COc1cc(C(=O)OCCCN2CCCN(CCCOC(=O)c3cc(OC)c(OC)c(OC)c3)CC2)cc(OC)c1OC
Ct reduction: -0.309 (inactive) and -0.64 (inactive)
